Assay results from patent publication EP4740962A1, “PHARMACEUTICAL COMPOSITION, FORMULATION CONTAINING PHARMACEUTICAL COMPOSITION, KIT CONTAINING PHARMACEUTICAL COMPOSITION, PREPARATION METHOD FOR PHARMACEUTICAL COMPOSITION, AND USE OF PHARMACEUTICAL COMPOSITION” (Shanghai WD Pharmaceutical Co., Ltd, priority 2023, dated 2025).

What was measured:
[1] = Compatibility study of carbidopa-levodopa granule raw materials and excipients at 40°C/75% RH; format: physicochemical
From the text: (§1) After preparation into the formulation, there was a risk of exceeding the limit for related substances in terms of stability.

[2] = Compatibility study of voriconazole granule raw material and excipients at 40°C/75% RH; format: physicochemical
From the text: as §1

| Appearance [1] | Total impurities (%) ([1]; 0 Days) | Total impurities (%) ([1]; 14 Days) | Total impurities (%) ([1]; 28 Days) | Appearance [2] | Total impurities (%) ([2]; 0 Days) | Total impurities (%) ([2]; 14 Days) | Total impurities (%) ([2]; 28 Days) | Compound |
| --- | --- | --- | --- | --- | --- | --- | --- | --- |
| No change | 0.10% | 0.08% | 0.07% | – | – | – | – | C[C@@](Cc1ccc(O)c(O)c1)(NN)C(=O)O [Carbidopa] |
| No change | Not detected | 0.03% | 0.07% | – | – | – | – | N[C@@H](Cc1ccc(O)c(O)c1)C(=O)O [Levodopa] |
| – | – | – | – | No change | 0.01% | 0.01% | 0.01% | C[C@@H](c1ncncc1F)[C@](O)(Cn1cncn1)c1ccc(F)cc1F [Voriconazole] |
